Measured values: PubChem BioAssay AID2060900 (Molecular Pharmacology Branch, DTP, NCI, 2025)

Test system: 521955-158-R2-J5-PDC complex spheroids, viability
Assay: Anticancer human tumor 521955-158-R2-J5-PDC patient-derived pancreatic carcinoma cell line growth inhibition [RAS]
Details: for viability, T/C: stronger effect = lower value
How it was run: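 Agents were tested in combination matrices in half-log decrements from a top concentration at or near clinical Cmax (10 microM if undetermined). Targets were multi-cell spheroids of tumour lines plus HUVEC and MSC stromal cells.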
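Also: compound exposure lasted seven days before the viability read.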
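For viability, T/C in this document: spheroids also contain HUVEC endothelial cells and mesenchymal stem cells as stroma.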

Work on `C=CC(=O)N1CCN(c2nc(OCC3CCCN3C)nc3c(F)c(-c4nc(N)cc(C)c4C(F)(F)F)c(Cl)cc23)C(C)C1` (stereo not given) + CCn1c(-c2cccnc2C(C)OC)c2c3cc(ccc31)N1CCOC(CC(NC(=O)C(C(C)C)N(C)C(=O)C3(F)CCN(C(=O)C#CC(C)(C)N(C)C)CC3)C(=O)N3CCCC(N3)C(=O)OCC(C)(C)C2)C1 yielded an IC50 (curve of first compound, second compound 0.000949 µM) greater than 1000 nM, an IC50 (curve of first compound, second compound 0.003 µM) greater than 1000 nM and an IC50 (curve of first compound, second compound 0.00949 µM) greater than 1000 nM. For the same compound, the IC50 (curve of first compound, second compound 0.03 µM) was greater than 1000 nM, the IC50 (curve of first compound, second compound 0.0949 µM) was greater than 1000 nM and the IC50 (curve of first compound, second compound 0.3 µM) was greater than 1000 nM. The viability, T/C (second compound 0.000949 µM, first compound 0.00316 µM) was 100%, the viability, T/C (second compound 0.000949 µM, first compound 0.01 µM) was 104% and the viability, T/C (second compound 0.000949 µM, first compound 0.0316 µM) was 104%. The viability, T/C (second compound 0.000949 µM, first compound 0.1 µM) was 103%, the viability, T/C (second compound 0.000949 µM, first compound 0.316 µM) was 99.1% and the viability, T/C (second compound 0.000949 µM, first compound 1 µM) was 92.7%. The viability, T/C (second compound 0.003 µM, first compound 0.00316 µM) was 93.2%, the viability, T/C (second compound 0.003 µM, first compound 0.01 µM) was 88.3% and the viability, T/C (second compound 0.003 µM, first compound 0.0316 µM) was 107%. It also gave a viability, T/C (second compound 0.003 µM, first compound 0.1 µM) of 113%, a viability, T/C (second compound 0.003 µM, first compound 0.316 µM) of 86.5% and a viability, T/C (second compound 0.003 µM, first compound 1 µM) of 94.7%. For the same compound, the viability, T/C (second compound 0.00949 µM, first compound 0.00316 µM) was 97.7%, the viability, T/C (second compound 0.00949 µM, first compound 0.01 µM) was 111% and the viability, T/C (second compound 0.00949 µM, first compound 0.0316 µM) was 109%. It also gave a viability, T/C (second compound 0.00949 µM, first compound 0.1 µM) of 115%, a viability, T/C (second compound 0.00949 µM, first compound 0.316 µM) of 97.9% and a viability, T/C (second compound 0.00949 µM, first compound 1 µM) of 97.7%. It also gave a viability, T/C (second compound 0.03 µM, first compound 0.00316 µM) of 99.3%, a viability, T/C (second compound 0.03 µM, first compound 0.01 µM) of 92.8% and a viability, T/C (second compound 0.03 µM, first compound 0.0316 µM) of 97.7%. The viability, T/C (second compound 0.03 µM, first compound 0.1 µM) was 95.8%, the viability, T/C (second compound 0.03 µM, first compound 0.316 µM) was 95.2% and the viability, T/C (second compound 0.03 µM, first compound 1 µM) was 91.9%. For the same compound, the viability, T/C (second compound 0.0949 µM, first compound 0.00316 µM) was 88.5%, the viability, T/C (second compound 0.0949 µM, first compound 0.01 µM) was 86.8% and the viability, T/C (second compound 0.0949 µM, first compound 0.0316 µM) was 104%. For the same compound, the viability, T/C (second compound 0.0949 µM, first compound 0.1 µM) was 96.4%, the viability, T/C (second compound 0.0949 µM, first compound 0.316 µM) was 98.1% and the viability, T/C (second compound 0.0949 µM, first compound 1 µM) was 74.4%. It also gave a viability, T/C (second compound 0.3 µM, first compound 0.00316 µM) of 80%, a viability, T/C (second compound 0.3 µM, first compound 0.01 µM) of 78.2% and a viability, T/C (second compound 0.3 µM, first compound 0.0316 µM) of 90.1%. For the same compound, the viability, T/C (second compound 0.3 µM, first compound 0.1 µM) was 69.1%, the viability, T/C (second compound 0.3 µM, first compound 0.316 µM) was 89.4% and the viability, T/C (second compound 0.3 µM, first compound 1 µM) was 79.7%.

`O=C(c1ccc(F)c(F)c1Nc1ccc(I)cc1F)N1CC(O)([C@@H]2CCCCN2)C1` was tested, and the viability, T/C (compound 0.00316 µM) was 82% [middle of 4 runs], the viability, T/C (compound 0.01 µM) was 71% [middle of 4 runs] and the viability, T/C (compound 0.0316 µM) was 51.7% [middle of 4 runs]. For the same compound, the viability, T/C (compound 0.1 µM) was 42.8% [middle of 4 runs], the viability, T/C (compound 0.316 µM) was 33.9% [middle of 4 runs] and the viability, T/C (compound 1 µM) was 23.6% [middle of 4 runs]. For the same compound, the IC50 (curve of compound) was 40.1 nM [middle of 4 runs].

For `CC1(O)CCCC1n1c(=O)c(C(F)F)cc2cnc(NC3CCN(S(C)(=O)=O)CC3)nc21` (stereo not given), the viability, T/C (compound 0.0316 µM) was 92.5% [middle of 4 runs], the viability, T/C (compound 0.1 µM) was 76.6% [middle of 4 runs] and the viability, T/C (compound 1 µM) was 75.7% [middle of 4 runs]. The viability, T/C (compound 3.16 µM) was 118% [middle of 4 runs], the viability, T/C (compound 10 µM) was 14.9% [middle of 4 runs] and the IC50 (curve of compound) was 5.85 µM [middle of 4 runs].
